Measurements published in patent publication US9763963B2, “Topically active steroids for use in interstitial pulmonary fibrosis” (Soligenix, Inc., priority 2008, dated 2017).
Several values for one entry are separate records, joined by “and”; a condition that tells them apart may be missing. Equal entries are not always repeated. Values belong to the molecule of their own block, whether it stands above or below them.

How the values were obtained:
[1] = BDP and 17-BMP in plasma of right atrial blood after oral BDP; details: oral BDP 2 mg
[2] = bioavailability study of oral BDP, given orally and intravenously to 12 healthy subjects
[3] = tested on: pulmonary function (FVC, FEV1, TLC, DLCO); experiment: pulmonary function testing after allogeneic HCT, oral BDP versus placebo; assay type: in vivo, human
Text: Patients whose symptoms were controlled at study day ten continued on study drug while the prednisone dose was rapidly tapered. Patients whose symptoms required additional prednisone were considered treatment failures. Study drug was discontinued on the day of treatment failure. The duration of treatment with study drug was 30 days with a 10-day follow-up period in the first trial and 50 days with a 30-day follow-up period in the second trial.
Pulmonary function assessments included forced vital capacity (FVC), one-second forced expiratory volume (FEV1), total lung capacity (TLC), and carbon monoxide diffusion capacity (DLCO), which was adjusted for hemoglobin level at the time PFTs were obtained. All PFT values were expressed as a percent of the predicted value calculated according to published equations (Crapo R O et al., Am Rev Respir Dis, 1981; 123:659-664; Crapo R O et al., Am Rev Respir Dis, 1981; 123:185-189). Pretransplantation and Day 80 PFTs were obtained, regardless of the presence or absence of symptoms. After discharge, patients were encouraged to return at one year after transplantation, at which time another PFT was obtained. For purposes of the current study, PFTs performed between days 60 and 100 were considered as valid for the Day 80 PFT and tests performed between days 265 and 465 as valid for the one-year PFT. Change in lung function was assessed by comparing PFT parameters performed prior to start of conditioning to those obtained post-transplantation at Day 80 and one year. Analysis of change in lung function was done on an intent-to-treat basis, by randomization assignment to oral BDP or placebo, with maintenance of the study blind.

[4] = tested on: noninfectious pulmonary complications; experiment: noninfectious pulmonary complications after randomization (record review); assay type: in vivo, human
Text: (§1) While blinded to randomization assignment, investigators reviewed all patients' pulmonary radiologic records accumulated from the time of randomization to one year after transplantation. The medical records of all patients with abnormal pulmonary radiological findings were reviewed to determine whether the pulmonary disease was a clinically significant noninfectious or infectious syndrome. Clinically significant noninfectious pulmonary syndromes included idiopathic pneumonia syndrome (IPS), defined as widespread alveolar injury in the absence of active lower respiratory tract infection after HCT (Freudenberger T D et al., Blood, 2003; 102:3822-3828, diffuse alveolar hemorrhage (DAH), defined as IPS with bronchioalveolar lavage showing progressively bloodier return, or biopsy-proven cryptogenic organizing pneumonia (COP) otherwise known as bronchiolitis obliterans organizing pneumonia (BOOP). Clinically significant pulmonary infection required microbiologic documentation of an infectious agent in the respiratory tract via bronchoscopy or resolution of pulmonary abnormalities after empirical antibiotic therapy with no addition of immunosuppressive agents.

pulmonary infection = experiment: pulmonary infections after randomization (record review); assay type: in vivo, human
Text: as §1

[5] = tested on: gastrointestinal graft-versus-host disease (GVHD); details: cited from earlier work
[6] = pre-HCT baseline to transplant day 80

- time of peak concentration in right atrial blood, median ([1]; study Day 50, four patients): 1.5 h
- median half-life ([1]; study Day 50, range 3.1-6.8): 6.3 h
- median Cm ([1]; study Day 50, range 632-3701): 1738 pg/mL
- total oral bioavailability ([2]; active metabolite after oral BDP, unpublished data): 21-41%
Molecule: CCC(=O)O[C@]1(C(=O)CO)[C@@H](C)C[C@H]2[C@@H]3CCC4=CC(=O)C=C[C@]4(C)[C@@]3(Cl)[C@@H](O)C[C@@]21C [17-BMP, 17-beclomethasone monopropionate]

Molecule: beclomethasone 17,21-dipropionate [BDP]
- DLCO: mean decrease from baseline to one year ([3]; 32 patients with data, placebo 15.27%, p=0.11): 7.67%
- DLCO, pulmonary function at one year ([3]; mean, n = 33): 78.1% of predicted normal values
- FEV1, pulmonary function at one year ([3]; mean, n = 33): 85.9% of predicted normal values
- FVC, pulmonary function at one year ([3]; mean, n = 33): 89.4% of predicted normal values
- TLC, pulmonary function at one year ([3]; mean, n = 33): 95.7% of predicted normal values
- DLCO, pulmonary function at Day 80 ([3]; mean, n = 54): 86.0% of predicted normal values
- TLC, pulmonary function at Day 80 ([3]; mean, n = 55): 96.9% of predicted normal values
- FEV1, pulmonary function at Day 80 ([3]; mean, n = 56): 90.3% of predicted normal values
- FVC, pulmonary function at Day 80 ([3]; mean, n = 56): 93.8% of predicted normal values
- FEV1: mean change ([3]; pre-HCT baseline to day 80, percent of predicted, range −22, +34, p 0.48): −0.05
- TLC: mean change ([3]; pre-HCT baseline to day 80, percent of predicted, range −25, +57, p 0.23): +1.41
- FVC: mean change ([3]; pre-HCT baseline to day 80, percent of predicted, range −30, +35, p 0.26): +0.34
- FEV1: % of patients who experienced a decrease [3, 6]: (50) %
- FVC: % of patients who experienced a decrease [3, 6]: (50) %
- TLC: % of patients who experienced a decrease [3, 6]: (58) %
- DLCO: N, proportion of patients who experienced a decrease ([3]; pre-HCT baseline to transplant day 80, p 0.02): 27 of 49 and 27/49
- FVC: N, proportion of patients who experienced a decrease ([3]; pre-HCT baseline to transplant day 80, p 0.66): 25/50
- FEV1: N, proportion of patients who experienced a decrease ([3]; pre-HCT baseline to transplant day 80, p 0.83): 25/50
- TLC: N, proportion of patients who experienced a decrease ([3]; pre-HCT baseline to transplant day 80, p 0.88): 29/50
- noninfectious events ([4]; after Day 200): four
- cases of noninfectious pulmonary complications ([4]; first 200 days after randomization, 60 patients, placebo four): no cases
- day of noninfectious event ([4]; in order: COP/BOOP, IPS, bronchiolitis obliterans syndrome, DAH): 207 days and 212 days and 244 days and 269 days
- cases of pulmonary infection (pulmonary infection; first 200 days after randomization): 6
- cases of pulmonary infection (pulmonary infection; first year after randomization, 60 patients, placebo 11): 8
- share of first-year pulmonary infections that occurred in the first 200 days (pulmonary infection; in vivo): 75%
- patients who developed noninfectious pulmonary infiltrative disorders ([5]; 80-day study period, placebo 12/67 (18%)): 0/62
- multiple bacteremic episodes ([5]; most recent trial, placebo 9%): none
- fungal infections ([5]; most recent trial, placebo 14%): 7%
- cytomegalovirus reactivations ([5]; most recent trial, placebo 39%): 28%
- reduction in mortality risk ([5]; one-year post-randomization): 45%
- intravenous dexamethasone dose of equivalent systemic exposure ([2]; oral BDP 2 mg): less than 1 mg
- oral prednisone dose of equivalent systemic exposure ([2]; oral BDP 2 mg): 2.5 mg
